Here are results for 37 molecules from patent publication US20020010182A1, “Piperazine derivatives as tachykinin antagonists” (FUJISAWA PHARMACEUTICAL CO., LTD., priority 1995, published 2002).

A word on the melting point: it is the temperature, or range, at which the solid turns liquid. By inhibition is commonly meant the relative decrease from the control value, in per cent.

Counter-ions that a name gives are not always drawn. Bounds are passed on as bounds.

Data set [1] has as its target T1, h-NK1 receptors (Homo sapiens, UniProt P25103).
T1 construct: expressed in transfected cells; host or cells: CHO cells (permanent expression), crude cell membranes
In words: Evaluation of NK1 antagonist transport efficiency to the central nervous system using a h-NK1 receptor binding assay. Conditions: 5 min, brain extract of male SD rats 5 min after i.v. injection of test compound, CHO cell membranes expressing h-NK1, read-out: inhibition rate of 125I-BH-Substance P binding to h-NK1 receptors. Here is the method: A. Evaluation of NK1 Antagonist Transport Efficiency to the Cental Nervous System Using a h-NK1 Receptor Binding Assay
(1) Administration of Test Compound and Extraction of the Compound From Brain
Male SD rats were given an i.v. injection of a solution containing a test compound (1 mg/kg). 5 Min later the animals were anesthetized by ether, bled and perfused through the aorta ascendens with 20 ml of saline. The brain was rapidly removed, weighed and homogenized in 4 vol. ice-cold distilled water by using Polytoron (KINEMATICA). To extract the test compound, 500 μl of the homogenate, 100 μl of methanol, 500 μl of 0.1 N NaOH and 4 ml of ethyl acetate were mixed by shaking for 10 min at room temperature. The organic phase (2.5 ml) was recovered by centrifugation at 3,000 rpm for 10 min, dried and dissolved in dimethyl sulfoxide.
(2) h-NK1 Receptor Binding Assay
(a) Crude CHO Cell Membrane Preparation
CHO cells permanently expressing h-NK1 receptors were harvested and homogenized with a Dounce homogenizer at 4° C. in a buffer (0.25 M sucrose, 25 mM Tris-HCl (pH 7.4), 10 mM MgCl2, 1 mM EDTA, 5 μg/ml p-APMSF). The homogenate was centrifuged (500×g, 10 min), and the pellet was resuspended in the same buffer, homogenized, and centrifuged. The two supernatants were combined and centrifuged (100,000×g, 1 hour). The crude cell membranes thus isolated were resuspended in a buffer (25 MM Tris-HCl (pH 7.4), 10 mM MgCl2, 1 mM EDTA, 5 μg/ml p-APMSF) and stored at −80° C. until use.
(b) ^125I-BH-Substance P Binding to the Prepared Membrane
Cell membranes (6 μg/ml) were incubated with ^125I-BH-Substance P (0.1 nM) with or without the extracted compounds in 0.25 ml of a medium (50 mM Tris-HCl (pH 7.4), 5 mM MnCl2, 20 μg/ml chymrostatin, 40 μg/ml bacitracin, 4 μg/ml leupeptin, 5 μg/ml p-APMSF, 200 μg/ml BSA) at 22° C. for 90 min. At the end of the incubation period, the contents were quickly filtered through a Blue Mat 11740 filter (pretreated with 0.1% polyethylenimine for 3 hours prior to use) by using SKATRON Cell Harvester. The filter was then washed with a washing buffer (50 mM Tris-HCl (pH 7.4), 5 mM MnCl2) . The radioactivity was counted by using an auto gamma counter (Packard RIASTAR 5420A). All data presented are specific binding defined as that displaceable by 3 μM unlabeled Substance P.

T1 sequence (P25103 whole entry): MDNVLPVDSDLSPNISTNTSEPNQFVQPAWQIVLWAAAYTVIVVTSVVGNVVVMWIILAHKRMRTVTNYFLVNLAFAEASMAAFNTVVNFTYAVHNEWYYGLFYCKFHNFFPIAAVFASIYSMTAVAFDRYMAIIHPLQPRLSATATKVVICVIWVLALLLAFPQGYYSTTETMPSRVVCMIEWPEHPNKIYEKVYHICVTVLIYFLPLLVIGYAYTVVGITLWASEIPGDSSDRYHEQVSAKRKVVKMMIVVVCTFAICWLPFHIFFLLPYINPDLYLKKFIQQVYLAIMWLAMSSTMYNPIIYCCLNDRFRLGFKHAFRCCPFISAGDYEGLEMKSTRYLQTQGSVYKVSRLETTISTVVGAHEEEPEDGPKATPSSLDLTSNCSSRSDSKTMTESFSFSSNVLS

`Cl.Cl.O=C(c1cc(C(F)(F)F)cc(C(F)(F)F)c1)N1CCN(CCCN2CC=CCC2)C[C@H]1Cc1c[nH]c2ccccc12` returned a melting point of more than 200 °C.

Turning to `Cl.Cl.O=C(c1cc(C(F)(F)F)cc(C(F)(F)F)c1)N1CCN(C/C=C/CN2CCSCC2)C[C@H]1Cc1ccc2ccccc2c1`, the melting point is more than 230 °C.

Turning to `Cc1ccc(C[C@@H]2CN(Cc3cn(C)cn3)CCN2C(=O)c2cc(C(F)(F)F)cc(C(F)(F)F)c2)cc1C` [52-(1), (2R)-1-[3,5-Bis(trifluoromethyl)benzoyl]-2-(3,4-dimethylbenzyl)-4-[(1-methyl-1H-imidazol-4-yl)methyl]piperazine dihydrochloride], the inhibition at 1 mg/kg in data set [1] was more than 80%.

As to `Cl.Cl.O=C(c1cc(C(F)(F)F)cc(C(F)(F)F)c1)N1CCN(CC#CCN2CCOCC2)C[C@H]1Cc1c[nH]c2ccccc12`, the melting point lay within 165 to 169 °C.

Regarding `CN(C)c1ccc(C(=O)CN2CCN(C(=O)c3cc(C(F)(F)F)cc(C(F)(F)F)c3)[C@H](Cc3c[nH]c4ccccc34)C2)cc1` [Example 8, (2R)-1-[3,5-bis (trifluoromethyl)benzoyl]-4-(4-dimethylaminophenylcarbonylmethyl)-2-(1H-indol-3-ylmethyl]piperazine], the melting point is 185 °C (dec.).

On to `Cc1ccc(C[C@@H]2CN(CCCNN3CCOCC3)CCN2C(=O)c2cc(C(F)(F)F)cc(C(F)(F)F)c2)cc1C` [67-(4), (2R)-1-[3,5-Bis(trifluoromethyl)benzoyl]-2-(3,4-dimethylbenzyl)-4-[3-(morpholinoamino)propyl]piperazine dihydrochloride], for which, in data set [1], the inhibition at 1 mg/kg is more than 80%.

On to `O=C(c1cc(C(F)(F)F)cc(C(F)(F)F)c1)N1CCN(CCO)C[C@H]1Cc1ccc(Cl)c(Cl)c1` [Example 47, (2R)-2-(3,4-dichlorobenzyl)-1-[3,5-bis(trifluoromethyl)benzoyl]-4-(2-hydroxyethyl) piperazine hydrochloride], for which, in data set [1], the inhibition at 1 mg/kg is more than 80%.

With `Cl.Cl.O=C(c1cc(C(F)(F)F)cc(C(F)(F)F)c1)N1CCN(CCCN2CCOCC2)C[C@H]1Cc1c[nH]c2ccccc12`, the melting point is 265 °C (dec.).

The molecule `Cc1ccc(C[C@@H]2CN(CC#Cc3cccnc3)CCN2C(=O)c2cc(C(F)(F)F)cc(C(F)(F)F)c2)cc1C.Cl.Cl` returned a melting point of 140 to 150 °C.

On to `Cc1ccc(C[C@@H]2CN(CC#CCN3CCOC(CF)C3)CCN2C(=O)c2cc(C(F)(F)F)cc(C(F)(F)F)c2)cc1C.Cl.Cl` (stereo partly shown), for which the melting point lay in the range of 175 to 180 °C.

For `Cc1ccc(C[C@@H]2CN(CC#CCN3CCSCC3)CCN2C(=O)c2cc(C(F)(F)F)cc(C(F)(F)F)c2)cc1C.Cl.Cl`, the melting point lay within 162 to 170 °C.

As to `CC(=O)c1ccccc1C(=O)N1CCN(C(=O)c2cc(C(F)(F)F)cc(C(F)(F)F)c2)[C@H](Cc2c[nH]c3ccccc23)C1` [Example 16-(2), (2R)-4-(2-Acetylbenzoyl)-1-[3,5-bis(trifluoromethyl)benzoyl]-2-(1H-indol-3-ylmethyl)piperazine], the melting point lay within 190 to 192 °C.

Turning to `Cc1ccc(C(=O)CN2CCN(C(=O)c3cc(C(F)(F)F)cc(C(F)(F)F)c3)[C@H](Cc3c[nH]c4ccccc34)C2)cc1.Cl`, the melting point is 203 °C (dec.).

With `Cc1ccc(C[C@@H]2CN(CCCNCc3cccnc3)CCN2C(=O)c2cc(C(F)(F)F)cc(C(F)(F)F)c2)cc1C` [82-(1), (2R)-1-[3,5-Bis(trifluoromethyl)benzoyl]-2-(3,4-dimethylbenzyl)-4-[N-(3-pyridylmethyl)-3-aminopropyl]piperazine trihydrochloride], in data set [1], the inhibition at 1 mg/kg is more than 80%.

In turn, `Cl.Cl.O=C(c1cc(C(F)(F)F)cc(C(F)(F)F)c1)N1CCN(CC#CCN2CCSCC2)C[C@H]1Cc1ccc2ccccc2c1` gave a melting point of 152 to 156 °C.

As to `O=C(c1cc(C(F)(F)F)cc(C(F)(F)F)c1)N1CCN(CCN2CCSCC2)C[C@H]1Cc1ccc2ccccc2c1` [Example 44-(2), (2R)-1-[3,5-Bis(trifluoromethyl)benzoyl]-2-(2-naphthylmethyl)-4-(2-thiomorpholinoethyl) piperazine dihydrochloride], the inhibition at 1 mg/kg in data set [1] is more than 80%.

In turn, `Cc1ccc(C[C@@H]2CN(CCCc3cnn(C)c3)CCN2C(=O)c2cc(C(F)(F)F)cc(C(F)(F)F)c2)cc1C.Cl` came in with a melting point of 163 to 165 °C.

As to `Cl.Cl.O=C(c1cc(C(F)(F)F)cc(C(F)(F)F)c1)N1CCN(CC#CCN2CCSCC2)C[C@H]1Cc1ccc(C(F)(F)F)cc1`, the melting point was 173 °C (dec.).

For the molecule `Cc1ccc(C(=O)CN2CCN(C(=O)c3cc(C(F)(F)F)cc(C(F)(F)F)c3)[C@H](Cc3c[nH]c4ccccc34)C2)cc1C.Cl`, the melting point is 166 °C (dec.).

As for `Cc1ccc(C[C@@H]2CN(CCCc3cccnc3)CCN2C(=O)c2cc(C(F)(F)F)cc(C(F)(F)F)c2)cc1C.Cl.Cl`, the melting point lay within 163 to 168 °C.

On to `Cc1ccc(C[C@@H]2CN(Cc3ccc([N+](=O)[O-])cc3)CCN2C(=O)c2cc(C(F)(F)F)cc(C(F)(F)F)c2)cc1C.Cl.Cl`, for which the melting point was 140 °C (dec.).

With `Cl.Cl.Cl.O=C(c1cc(C(F)(F)F)cc(C(F)(F)F)c1)N1CCN(CCCN2CCC(N3CCCCC3)CC2)C[C@H]1Cc1ccc(Cl)c(Cl)c1`, the melting point is more than 200 °C.

In turn, `Cc1ccc(C[C@@H]2CN(C/C=C/CN3CCOCC3(C)C)CCN2C(=O)c2cc(C(F)(F)F)cc(C(F)(F)F)c2)cc1C.Cl.Cl` gave a melting point of more than 230 °C.

Take `Cl.Cl.O=C(c1cc(C(F)(F)F)cc(C(F)(F)F)c1)N1CCN(CC#CCN2CCSCC2)C[C@H]1Cc1cccc2ccccc12`: the melting point is 191 °C (dec.).

Take `COC[C@@H]1CCCN1CC#CCN1CCN(C(=O)c2cc(C(F)(F)F)cc(C(F)(F)F)c2)[C@H](Cc2ccc(C)c(C)c2)C1.Cl.Cl`: the melting point lay within 195 to 197 °C.

`Cl.O=C(CN1CCN(C(=O)c2cc(C(F)(F)F)cc(C(F)(F)F)c2)[C@H](Cc2c[nH]c3ccccc23)C1)N1CCN(c2ccc(F)cc2)CC1`: the melting point is 183 °C (dec.).

In the case of `COCC1COCCN1CC#CCN1CCN(C(=O)c2cc(C(F)(F)F)cc(C(F)(F)F)c2)[C@H](Cc2ccc(C)c(C)c2)C1.Cl.Cl` (stereo partly shown), the melting point lay in the range of 140 to 155 °C.

For `Cl.O=C(CN1CCN(C(=O)c2cc(C(F)(F)F)cc(C(F)(F)F)c2)[C@H](Cc2c[nH]c3ccccc23)C1)c1ccc(F)c(F)c1`, the melting point was 171 °C (dec.).

In the case of `O=C(c1cc(C(F)(F)F)cc(C(F)(F)F)c1)N1CCN(CCCC2(c3ccc(F)cc3)OCCO2)C[C@H]1Cc1c[nH]c2ccccc12` [Example 38, (2R)-4-[4,4-ethylenedioxy-4-(4-fluorophenyl)butyl]-1-[3,5-bis (trifluoromethyl)benzoyl]-2-(1H-indol-3-ylmethyl) piperazine], the melting point was in the range of 145 to 146 °C.

`Cl.Cl.O=C(c1cc(C(F)(F)F)cc(C(F)(F)F)c1)N1CCN(CCN2CCOCC2)C[C@H]1Cc1c[nH]c2ccccc12` gave a melting point of 170 to 176 °C.

`Cl.O=C(CN1CCN(C(=O)c2cc(C(F)(F)F)cc(C(F)(F)F)c2)[C@H](Cc2c[nH]c3ccccc23)C1)N1CCN(C2CCCC2)CC1`: the melting point was 270 °C (dec.).

In the case of `Cl.Cl.Cl.O=C(c1cc(C(F)(F)F)cc(C(F)(F)F)c1)N1CCN(CCCN2CCN(C3CCCCC3)CC2)C[C@H]1Cc1c[nH]c2ccccc12`, the melting point was 250 °C (dec.).

For `Cc1ccc(C[C@@H]2CN(CC#CCN3CCN(C4CCCCC4)CC3)CCN2C(=O)c2cc(C(F)(F)F)cc(C(F)(F)F)c2)cc1C.Cl.Cl.Cl`, the melting point lay within 175 to 190 °C.

As to `Cc1ccc(C[C@@H]2CN(C/C=C/CN3CCSCC3)CCN2C(=O)c2cc(C(F)(F)F)cc(C(F)(F)F)c2)cc1C.Cl.Cl`, the melting point was more than 230 °C.

`CC(=O)c1cccc(C(=O)N2CCN(C(=O)c3cc(C(F)(F)F)cc(C(F)(F)F)c3)[C@H](Cc3c[nH]c4ccccc34)C2)c1` [Example 16-(1), (2R)-4-(3-Acetylbenzoyl)-1-[3,5-bis(trifluoromethyl)benzoyl]-2-(1H-indol-3-ylmethyl)piperazine] had a melting point of 186 to 187.5 °C.

Take `Cl.Cl.O=C(c1cc(C(F)(F)F)cc(C(F)(F)F)c1)N1CCN(CCCN2CC3CCC(CC3)C2)C[C@H]1Cc1ccc(Cl)c(Cl)c1`: the melting point is 150 °C (dec.).

With `Cl.O=C(CN1CCN(C(=O)c2cc(C(F)(F)F)cc(C(F)(F)F)c2)[C@H](Cc2c[nH]c3ccccc23)C1)c1cccc(F)c1`, the melting point is 195 °C (dec.).
